In patent US20240316061A1, “BET INHIBITORS FOR TREATING PAB1 DEFICIENT CANCER” (INSTITUT CURIE, priority 2021, published 2024):

What was measured:
Type in all cases: cell-based
[1] = tested on: isogenic HAP1 cells (Wild-type or BAP1 knockout); assay: Proliferation of isogenic HAP1 cells exposed to BI894999, CellTiter-Glo; conditions: increasing concentration for 7 days; FIG. 3
Experimental: Proliferation of isogenic HAP1 cells (Wild-type or BAP1 knockout) exposed to increasing concentration of the BET inhibitor BI894999 for 7 days. Proliferation was measured using the CellTiter-Glo Luminescent Cell Viability assay.

[2] = tested on: human BAP1 cells either wild type or BAP1 knockout; assay: Proliferation of BAP1 wild type or BAP1 knockout cells exposed to OTX015, Cell Titer Glow; conditions: increasing dose for 12 days, compound renewed after 6 days; FIG. 1
Experimental: Proliferation of human BAP1 cells either wild type or BAP1 knockout (generated by genome editing) exposed to increasing dose of OTX015 for 12 days Cells were grown in IMDM and compound was renewed after 6 days. Cell viability was measured using Cell Titer Glow.

[3] = tested on: uveal melanoma derived cells wild type for BAP1 (MP41 and MM66) or BAP1 inactivated (MP46 and MP38); assay: Proliferation of uveal melanoma derived cells exposed to OTX015, MTT assay; conditions: increasing concentration for 12 days; MP46, MP38 vs MP41, MM66; FIG. 2
Experimental: Proliferation of uveal melanoma derived cells either wild type for BAP1 (MP41 and MM66) or for which BAP1 is inactivated (MP46 and MP38). Cells were exposed to increasing concentration of OTX015 for 12 days, Proliferation was measured using the MTT assay.

| SMILES | Dose response (proliferation) in BAP1 knockout HAP1 cells compared to HAP1 cells expressing BAP1 [1] | Dose response (proliferation) of BAP1 KO cells compared to BAP1 WT cells [2] | Dose response (proliferation) in BAP1 mutated UM derived cells compared to UM cells expressing BAP1 [3] |
| --- | --- | --- | --- |
| CNc1nc(-c2nc3ccc(N4CCN(C)CC4)cc3n2Cc2ccccc2)cn2c(C)nnc12 [BI894999] | enhanced dose response |  |  |
| Cc1sc2c(c1C)C(c1ccc(Cl)cc1)=N[C@@H](CC(=O)Nc1ccc(O)cc1)c1nnc(C)n1-2 [OTX015] |  | highest dose response | enhanced dose response |
